The values that follow are results of earlier work, collected in US20240190825A1, “PROCESS FOR PREPARATION OF CABOZANTINIB” (BIOCON LIMITED, priority 2021, published 2024).

The structures appear in SMILES notation.

Consider `COc1cc2nccc(Oc3ccc(NC(=O)C4(C(=O)Nc5ccc(F)cc5)CC4)cc3)c2cc1OC.O=C(O)C[C@H](O)C(=O)O` [Cabozantinib (S)-malate salt, N-(4-(6,7-dimethoxyquinolin-4-yloxy)phenyl)-N′-(4fluorophenyl)cyclopropane-1,1-dicarboxamide, (2S)-hydroxybutanedioate], for which, for the setting “aqueous media”, the “solubility in aqueous media” value was “practically insoluble”.

As to `COc1cc2nccc(Oc3ccc(NC(=O)C4(C(=O)Nc5ccc(F)cc5)CC4)cc3)c2cc1OC` [Cabozantinib, N-(4-(6,7-dimethoxyquinolin-4-yloxy)phenyl)-N′-(4Fluorophenyl) cyclopropane-1,1-dicarboxamide], for the setting “water”, the water solubility result is recorded as “poorly water-soluble”.

Regarding `COc1cc2nccc(Oc3ccc(NC(=O)C4(C(=O)Nc5ccc(F)cc5)CC4)cc3)c2cc1OC.O=C(O)C[C@H](O)C(=O)O` [crystalline form M4], under “as disclosed in WO2020057622 A1 on WO2015177758 A1 forms”, the “solubility of crystal form” value is “low”.
